Laboratory results from patent US20060069132A1, “Azolecarboxamide herbicides” (priority 2004, published 2006).
Where two headings read alike, the source gives them in different places.

Experiments:
wild oat = assay: Test B postemergence herbicide test; format: in vivo, Avena fatua; settings: Avena fatua, post-emergence, 336 h, postemergence, visual rating, scale 0 (no effect) to 100 (complete control), read-out: Oat, Wild plant response rating
Summary of the method: (§1)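 Each value is a visual 0–100 response rating taken against controls 13 to 15 days after treatment in the greenhouse. Plants received formulated chemical postemergence at the 1- to 4-leaf stage or, in flooded paddy, at the 2-leaf stage.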

velvetleaf = assay: Test B pre-/postemergence herbicide test; format: in vivo, Abutilon theophrasti; settings: Abutilon theophrasti, 336 h; for pest or weed control at 125 g/ha: 125 g ai/ha; for pest or weed control at 500 g/ha: 500 g ai/ha
Summary of the method: (§2)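 Response was scored visually 13 to 15 days after treatment against untreated greenhouse controls, 0 meaning no effect and 100 complete control. Formulations (solvent mixture plus surfactant) went onto soil after planting, onto foliage of 1- to 4-leaf plants, and onto 2-leaf plants in a flooded paddy set including rice and barnyardgrass.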

barnyardgrass = assay: Test B flooded paddy test; format: in vivo, Echinochloa crus-galli; settings: Echinochloa crus-galli, 336 h, 1000 g ai/ha, visual rating, scale 0 to 100 (0 no effect, 100 complete control), 13 to 15 days, read-out: Barnyardgrass plant response rating
Summary of the method: (§3)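 Postemergence plants were sprayed with formulated test chemicals at 2 to 18 cm height (1- to 4-leaf stage); paddy species were grown to the 2-leaf stage. After 13 to 15 days in a greenhouse, injury was rated visually against untreated controls on a 0–100 scale (0 = no effect, 100 = complete control).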

Surinam grass = assay: Test B pre-/postemergence herbicide test; format: in vivo, Urochloa decumbens; settings: Urochloa decumbens; for pest or weed control at 125 g/ha: 125 g ai/ha; for pest or weed control at 500 g/ha: 500 g ai/ha
Summary of the method: as §2

cocklebur = assay: Test B pre-/postemergence herbicide test; format: in vivo, Xanthium strumarium; settings: Xanthium strumarium; for pest or weed control at 125 g/ha: 125 g ai/ha; for pest or weed control at 500 g/ha: 500 g ai/ha
Summary of the method: (§4)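 Seeds were planted and treated preemergence with compounds formulated in a non-phytotoxic solvent mixture containing surfactant, while plants at the 1- to 4-leaf stage (2 to 18 cm) received postemergence sprays. Flooded paddy plants were grown to the 2-leaf stage. After 13 to 15 days in a greenhouse, injury was visually rated 0–100 against untreated controls.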

rice = assay: Test B flooded paddy test; format: in vivo, Oryza sativa; settings: Oryza sativa, 336 h, 1000 g ai/ha, visual rating, scale 0 to 100 (0 no effect, 100 complete control), 13 to 15 days, read-out: Rice plant response rating
Summary of the method: as §3

pigweed = assay: Test B pre-/postemergence herbicide test; format: in vivo, Amaranthus retroflexus; settings: Amaranthus retroflexus, 336 h; for pest or weed control at 125 g/ha: 125 g ai/ha; for pest or weed control at 500 g/ha: 500 g ai/ha
Summary of the method: as §2

giant foxtail = assay: Test B pre-/postemergence herbicide test; format: in vivo, Setaria faberi; settings: Setaria faberi, 336 h; for pest or weed control at 125 g/ha: 125 g ai/ha; for pest or weed control at 500 g/ha: 500 g ai/ha
Summary of the method: as §2

morningglory = assay: Test B pre-/postemergence herbicide test; format: in vivo, Ipomoea coccinea; settings: Ipomoea, 336 h; for pest or weed control at 125 g/ha: 125 g ai/ha; for pest or weed control at 500 g/ha: 500 g ai/ha
Summary of the method: as §4

wheat = assay: Test B postemergence herbicide test; format: in vivo, Triticum aestivum; settings: Triticum aestivum, post-emergence, 336 h, postemergence, 500 g ai/ha; visual rating, scale 0 (no effect) to 100 (complete control); read-out: Wheat plant response rating
Summary of the method: as §1

lambsquarters = assay: Test B pre-/postemergence herbicide test; format: in vivo, Chenopodium album; settings: Chenopodium album, 336 h; for pest or weed control at 125 g/ha: 125 g ai/ha; for pest or weed control at 500 g/ha: 500 g ai/ha
Summary of the method: as §2

ducksalad = assay: Test B flooded paddy test; format: in vivo, Heteranthera limosa; settings: Heteranthera limosa, 336 h, 1000 g ai/ha, visual rating, scale 0 to 100 (0 no effect, 100 complete control), 13 to 15 days, read-out: Ducksalad plant response rating
Summary of the method: as §3

blackgrass = assay: Test B postemergence herbicide test; format: in vivo, Alopecurus myosuroides; settings: Alopecurus myosuroides, post-emergence, 336 h, postemergence, visual rating, scale 0 (no effect) to 100 (complete control), read-out: Blackgrass plant response rating
Summary of the method: as §3

[1] = test system: small flower umbrella sedge; assay: Test B flooded paddy test; format: in vivo, Cyperus difformis; settings: Cyperus difformis, 336 h, 1000 g ai/ha, visual rating, scale 0 to 100 (0 no effect, 100 complete control), 13 to 15 days, read-out: Sedge, Umbrella plant response rating
Summary of the method: as §3

corn = assay: Test B pre-/postemergence herbicide test; format: in vivo, Zea mays; settings: Zea mays
Summary of the method: as §2

[2] = post-emergence, postemergence, visual rating, scale 0 (no effect) to 100 (complete control), read-out: Velvetleaf plant response rating
[3] = post-emergence, postemergence, visual rating, scale 0 (no effect) to 100 (complete control), read-out: Surinam Grass plant response rating
[4] = post-emergence, postemergence, visual rating, scale 0 (no effect) to 100 (complete control), read-out: Cocklebur plant response rating
[5] = post-emergence, postemergence, visual rating, scale 0 (no effect) to 100 (complete control), read-out: Pigweed plant response rating
[6] = post-emergence, postemergence, visual rating, scale 0 (no effect) to 100 (complete control), read-out: Foxtail, Giant plant response rating
[7] = post-emergence, postemergence, visual rating, scale 0 (no effect) to 100 (complete control), read-out: Morningglory plant response rating
[8] = post-emergence, postemergence, visual rating, scale 0 (no effect) to 100 (complete control), read-out: Lambsquarters plant response rating

Question: Which results are given for `CCn1nc(C(C)(C)C)cc1C(=O)Nc1cc(C(=O)N(C)C)ccn1` [Compound 156, 2-[[[3-(1,1-dimethylethyl)-1-ethyl-1H-pyrazol-5-yl]carbonyl]amino]-N,N-dimethyl-4-pyridinecarboxamide]?
Answer: pest or weed control at 125 g/ha (wild oat; 125 g ai/ha): 40%; pest or weed control at 500 g/ha (wild oat; 500 g ai/ha): 40%; pest or weed control at 125 g/ha (velvetleaf; [2]): 60%; pest or weed control at 500 g/ha (velvetleaf; [2]): 90%; pest or weed control at 500 g/ha (velvetleaf; pre-emergence, visual rating 0-100, 0 no effect, 100 complete control, read-out: Plant response rating, Velvetleaf): 100%; pest or weed control at 125 g/ha (velvetleaf; pre-emergence, preemergence, 0 to 100 scale, 0 is no effect, 100 is complete control, read-out: Plant response rating, Velvetleaf): 100%; pest or weed control at 1000 g/ha (barnyardgrass): 100%; pest or weed control at 125 g/ha (Surinam grass; [3]): 10%; pest or weed control at 500 g/ha (Surinam grass; [3]): 20%; pest or weed control at 500 g/ha (Surinam grass; pre-emergence, visual rating 0-100, 0 no effect, 100 complete control, read-out: Plant response rating, Surinam Grass): 100%; pest or weed control at 125 g/ha (Surinam grass; pre-emergence, preemergence, 0 to 100 scale, 0 is no effect, 100 is complete control, read-out: Plant response rating, Surinam Grass): 90%; pest or weed control at 125 g/ha (cocklebur; [4]): 40%; pest or weed control at 500 g/ha (cocklebur; [4]): 80%; pest or weed control at 500 g/ha (cocklebur; pre-emergence, visual rating 0-100, 0 no effect, 100 complete control, read-out: Plant response rating, Cocklebur): 100%; pest or weed control at 125 g/ha (cocklebur; pre-emergence, preemergence, 0 to 100 scale, 0 is no effect, 100 is complete control, read-out: Plant response rating, Cocklebur): 100%; plant injury at 1000 g/ha (rice): 90%; pest or weed control at 125 g/ha (pigweed; [5]): 30%; pest or weed control at 500 g/ha (pigweed; [5]): 60%; pest or weed control at 500 g/ha (pigweed; pre-emergence, visual rating 0-100, 0 no effect, 100 complete control, read-out: Plant response rating, Pigweed): 100%; pest or weed control at 125 g/ha (pigweed; pre-emergence, preemergence, 0 to 100 scale, 0 is no effect, 100 is complete control, read-out: Plant response rating, Pigweed): 100%; pest or weed control at 125 g/ha (giant foxtail; [6]): 20%; pest or weed control at 500 g/ha (giant foxtail; [6]): 40%; pest or weed control at 500 g/ha (giant foxtail; pre-emergence, visual rating 0-100, 0 no effect, 100 complete control, read-out: Plant response rating, Foxtail, Giant): 100%; pest or weed control at 125 g/ha (giant foxtail; pre-emergence, preemergence, 0 to 100 scale, 0 is no effect, 100 is complete control, read-out: Plant response rating, Foxtail, Giant): 100%; pest or weed control at 125 g/ha (morningglory; [7]): 20%; pest or weed control at 500 g/ha (morningglory; [7]): 50%; pest or weed control at 500 g/ha (morningglory; pre-emergence, visual rating 0-100, 0 no effect, 100 complete control, read-out: Plant response rating, Morningglory): 100%; pest or weed control at 125 g/ha (morningglory; pre-emergence, preemergence, 0 to 100 scale, 0 is no effect, 100 is complete control, read-out: Plant response rating, Morningglory): 60%; plant injury at 500 g/ha (wheat): 20%; pest or weed control at 125 g/ha (lambsquarters; [8]): 60%; pest or weed control at 500 g/ha (lambsquarters; [8]): 80%; pest or weed control at 500 g/ha (lambsquarters; pre-emergence, visual rating 0-100, 0 no effect, 100 complete control, read-out: Plant response rating, Lambsquarters): 100%; pest or weed control at 125 g/ha (lambsquarters; pre-emergence, preemergence, 0 to 100 scale, 0 is no effect, 100 is complete control, read-out: Plant response rating, Lambsquarters): 100%; pest or weed control at 1000 g/ha (ducksalad): 100%; pest or weed control at 125 g/ha (blackgrass; 125 g ai/ha): 30%; pest or weed control at 500 g/ha (blackgrass; 500 g ai/ha): 60%; pest or weed control at 1000 g/ha [1]: 90%; plant injury at 125 g/ha (corn; post-emergence, postemergence, 125 g ai/ha, visual rating, scale 0 (no effect) to 100 (complete control), read-out: Corn plant response rating): 0%; plant injury at 500 g/ha (corn; post-emergence, postemergence, 500 g ai/ha, visual rating, scale 0 (no effect) to 100 (complete control), read-out: Corn plant response rating): 10%; Corn plant response rating (crop injury, 0 = no effect, 100 = complete kill) at 500 g/ha (corn; pre-emergence, 500 g ai/ha, visual rating 0-100, 0 no effect, 100 complete control): 80%; Corn plant response rating (crop injury, 0 = no effect, 100 = complete kill) at 125 g/ha (corn; pre-emergence, preemergence, 125 g ai/ha, 0 to 100 scale, 0 is no effect, 100 is complete control): 40%
